Reference: ChEMBL document CHEMBL2029203, “Discovery of potent antimicrobial peptide analogs of Ixosin-B” (Bioorg Med Chem Lett, 2012)
Converted amounts (≈) assume the structure as drawn. Residues, ends and D or L forms follow the SMILES beside them.

What was measured:
Staphylococcus aureus [1] = test: Antimicrobial activity against Staphylococcus aureus ATCC 25923 after 18 to 20 hrs by spectrophotometry; format: functional
Escherichia coli [2] = test: Antimicrobial activity against Escherichia coli ATCC 25922 after 18 to 20 hrs by spectrophotometry; format: functional
Pseudomonas aeruginosa = test: Antimicrobial activity against Pseudomonas aeruginosa ATCC 27853 after 18 to 20 hrs by spectrophotometry; format: functional
[3] = Toxicity against human erythrocytes assessed as hemolysis at 100 uM after 1 hr by spectrophotometry; format: cell-based, Erythrocyte; conditions: read-out: Activity
Candida albicans = test: Antimicrobial activity against Candida albicans; format: functional
Staphylococcus aureus [4] = test: Antimicrobial activity against Staphylococcus aureus; format: functional
Escherichia coli [5] = test: Antimicrobial activity against Escherichia coli; format: functional

Row | SMILES | MIC (Staphylococcus aureus [1]) | MIC (Escherichia coli [2]) | MIC (Pseudomonas aeruginosa) | MIC (Candida albicans) | MIC (Staphylococcus aureus [4]) | MIC (Escherichia coli [5]) | hemolysis at 1 h, 100 µM [3]
1 | CC(C)[C@H](NC(=O)[C@H](CC(=O)O)NC(=O)[C@H](CO)NC(=O)[C@H](CCCCN)NC(=O)CNC(=O)[C@H](CO)NC(=O)[C@H](CO)NC(=O)[C@H](Cc1cnc[nH]1)NC(=O)[C@@H](N)CCC(N)=O)C(=O)N[C@@H](CCCNC(=N)N)C(=O)N[C@@H](CCCNC(=N)N)C(=O)N[C@@H](Cc1c[nH]c2ccccc12)C(N)=O (H-QHSSGKSDVRRW-NH2) | > 100 µM | > 100 µM | > 100 µM |  |  |  | 
2 | CC(C)C[C@H](NC(=O)[C@H](Cc1c[nH]c2ccccc12)NC(=O)[C@@H](N)CCCCN)C(=O)N[C@@H](CCCNC(=N)N)C(=O)N[C@@H](CCCNC(=N)N)C(=O)N[C@H](C(=O)N[C@@H](Cc1c[nH]c2ccccc12)C(=O)N[C@@H](CCCNC(=N)N)C(=O)N[C@@H](Cc1c[nH]c2ccccc12)C(=O)N[C@@H](Cc1c[nH]c2ccccc12)C(=O)N[C@@H](CCCNC(=N)N)C(N)=O)C(C)C (H-KWLRRVWRWWR-NH2) | 2.5 µM (≈ 4.32 µg/mL) | 15 µM (≈ 25.9 µg/mL) | 20 µM (≈ 34.5 µg/mL) |  |  |  | 100%
3 | CC[C@H](C)[C@H](NC(=O)CNC(=O)[C@H](CO)NC(=O)[C@H](CCCNC(=N)N)NC(=O)[C@@H](NC(=O)CNC(=O)[C@H](Cc1c[nH]c2ccccc12)NC(=O)[C@@H](N)CC(C)C)[C@@H](C)O)C(=O)N[C@@H](CCC(N)=O)C(=O)N1CCC[C@H]1C(=O)N[C@@H](CCC(=O)O)C(=O)N[C@@H](CCC(N)=O)C(=O)N[C@@H](Cc1cnc[nH]1)C(N)=O (H-LWGTRSGIQPEQH-NH2) | > 100 µM | > 100 µM | > 100 µM |  |  |  | 
4 | CC[C@H](C)[C@H](NC(=O)CNC(=O)[C@H](CO)NC(=O)[C@H](CCCNC(=N)N)NC(=O)[C@@H](NC(=O)CNC(=O)[C@H](Cc1c[nH]c2ccccc12)NC(=O)[C@H](CC(C)C)NC(=O)[C@H](CC(=O)O)NC(=O)[C@@H](NC(=O)[C@H](CCCCN)NC(=O)[C@H](CC(C)C)NC(=O)[C@@H](N)CCC(N)=O)C(C)C)[C@@H](C)O)C(N)=O (H-QLKVDLWGTRSGI-NH2) | > 100 µM | > 100 µM | > 100 µM |  |  |  | 
5 | CC1(C)S[C@@H]2[C@H](NC(=O)Cc3ccccc3)C(=O)N2[C@H]1C(=O)O [PENICILLIN G] | 0.5 µM (≈ 0.167 µg/mL) | > 100 µM | > 100 µM |  |  |  | 
6 | CC(C)C[C@H](NC(=O)[C@H](CCCNC(=N)N)NC(=O)[C@@H](N)CCCCN)C(=O)N[C@@H](CCCNC(=N)N)C(=O)N[C@@H](CCCNC(=N)N)C(=O)N[C@H](C(=O)N[C@@H](Cc1c[nH]c2ccccc12)C(=O)N[C@@H](CCCNC(=N)N)C(=O)N[C@@H](CCCNC(=N)N)C(=O)N[C@@H](Cc1c[nH]c2ccccc12)C(=O)N[C@@H](CCCNC(=N)N)C(N)=O)C(C)C (H-KRLRRVWRRWR-NH2) | 5 µM (≈ 8.34 µg/mL) | 30 µM (≈ 50 µg/mL) | 20 µM (≈ 33.3 µg/mL) |  |  |  | 3%

More lines, main results first:

Row | MIC (Staphylococcus aureus [1]) | MIC (Escherichia coli [2]) | MIC (Pseudomonas aeruginosa) | MIC (Candida albicans) | MIC (Staphylococcus aureus [4]) | MIC (Escherichia coli [5]) | SMILES | hemolysis at 1 h, 100 µM [3]
7 | 80 µM (≈ 305 µg/mL) | 80 µM (≈ 305 µg/mL) | > 80 µM | 7.5 µg/mL (≈ 1.97 µM) | 2.5 µg/mL (≈ 0.656 µM) | 15 µg/mL (≈ 3.93 µM) | CC[C@H](C)[C@H](NC(=O)CNC(=O)[C@H](CO)NC(=O)[C@H](CCCNC(=N)N)NC(=O)[C@@H](NC(=O)CNC(=O)[C@H](Cc1c[nH]c2ccccc12)NC(=O)[C@H](CC(C)C)NC(=O)[C@H](CC(=O)O)NC(=O)[C@@H](NC(=O)[C@H](CCCCN)NC(=O)[C@H](CC(C)C)NC(=O)[C@@H](N)CCC(N)=O)C(C)C)[C@@H](C)O)C(=O)N[C@@H](CCC(N)=O)C(=O)N1CCC[C@H]1C(=O)N[C@@H](CCC(=O)O)C(=O)N[C@@H](CCC(N)=O)C(=O)N[C@@H](Cc1cnc[nH]1)C(=O)N[C@@H](CO)C(=O)N[C@@H](CO)C(=O)NCC(=O)N[C@@H](CCCCN)C(=O)N[C@@H](CO)C(=O)N[C@@H](CC(=O)O)C(=O)N[C@H](C(=O)N[C@@H](CCCNC(=N)N)C(=O)N[C@@H](CCCNC(=N)N)C(=O)N[C@@H](Cc1c[nH]c2ccccc12)C(=O)N[C@@H](CCCNC(=N)N)C(=O)N[C@@H](CO)C(=O)N[C@@H](CCCNC(=N)N)C(=O)N[C@@H](Cc1ccc(O)cc1)C(N)=O)C(C)C [Ixosin-B-amide] (H-QLKVDLWGTRSGIQPEQHSSGKSDVRRWRSRY-NH2) | 0%
8 | 60 µM (≈ 91.7 µg/mL) | 30 µM (≈ 45.9 µg/mL) | 40 µM (≈ 61.2 µg/mL) |  |  |  | CC(C)C[C@H](NC(=O)[C@H](CO)NC(=O)[C@@H](N)CCCCN)C(=O)N[C@@H](CCCNC(=N)N)C(=O)N[C@@H](CCCNC(=N)N)C(=O)N[C@H](C(=O)N[C@@H](Cc1c[nH]c2ccccc12)C(=O)N[C@@H](CCCNC(=N)N)C(=O)N[C@@H](CO)C(=O)N[C@@H](Cc1c[nH]c2ccccc12)C(=O)N[C@@H](CCCNC(=N)N)C(N)=O)C(C)C (H-KSLRRVWRSWR-NH2) | 0%
9 | > 100 µM | > 100 µM | > 100 µM |  |  |  | CC(C)[C@H](NC(=O)[C@H](CC(=O)O)NC(=O)[C@H](CO)NC(=O)[C@@H](N)CCCCN)C(=O)N[C@@H](CCCNC(=N)N)C(=O)N[C@@H](CCCNC(=N)N)C(=O)N[C@@H](Cc1c[nH]c2ccccc12)C(=O)N[C@@H](CCCNC(=N)N)C(=O)N[C@@H](CO)C(=O)N[C@@H](CCCNC(=N)N)C(=O)N[C@@H](Cc1ccc(O)cc1)C(N)=O (H-KSDVRRWRSRY-NH2) | 
10 | 30 µM (≈ 45.9 µg/mL) | 30 µM (≈ 45.9 µg/mL) | 40 µM (≈ 61.2 µg/mL) |  |  |  | CC(C)C[C@H](NC(=O)[C@H](CO)NC(=O)[C@@H](N)CCCCN)C(=O)N[C@H](C(=O)N[C@@H](CCCNC(=N)N)C(=O)N[C@@H](CCCNC(=N)N)C(=O)N[C@@H](Cc1c[nH]c2ccccc12)C(=O)N[C@@H](CCCNC(=N)N)C(=O)N[C@@H](CO)C(=O)N[C@@H](CCCNC(=N)N)C(=O)N[C@@H](Cc1c[nH]c2ccccc12)C(N)=O)C(C)C (H-KSLVRRWRSRW-NH2) | 0%
